Experiments:
Settings in all cases: main component drawn
B. subtilis 168 [1] = assay: fitness (endpoint OD595 vs no drug) (fraction); higher = more growth
Method in brief: (§1)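 Each well of a 384-well plate received 30 µl of culture at OD595 0.01, or 55 µl for S. pneumoniae. TSB, LB Lennox or CY served as media at 37 °C. OD595 was taken every 30 min for 14 h and corrected by subtracting the first reading. Fitness is the optical density at stationary-phase entry divided by the robust mean of no-drug controls, capped at 1.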

S. aureus Newman [2] = assay: as above
Method in brief: as §1

S. pneumoniae D39V [3] = assay: as above
Method in brief: as §1

B. subtilis 168 [4] = assay: Bliss interaction score (quartile over a dose matrix) (fitness difference); higher = more antagonism (negative = synergy)
Method in brief: (§2)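 The Bliss score is observed fitness minus expected fitness, where the expected value is the product of single-drug fitness values inferred from combination data. Fitness is OD595 at entry into stationary phase normalised to the plate's robust no-drug mean and capped at 1. Scores are reported as quartiles spanning technical, biological and donor/recipient replicates.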

S. aureus DSM 20231 = assay: as above
Method in brief: as §2

S. aureus Newman [5] = assay: as above
Method in brief: as §2

S. pneumoniae D39V [6] = assay: as above
Method in brief: as §2
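Throughout, for Bliss interaction score (quartile over a dose matrix): first quartile when negative (synergy) and third quartile when positive (antagonism).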

CNC(C)C1CCC(N)C(OC2C(N)CC(N)C(OC3OCC(C)(O)C(NC)C3O)C2O)O1 (stereo not given) [Gentamicin] + CCN(CC)CCOC(=O)c1ccc(N)cc1 [Procaine]
fitness
Settings	partner 85.5 µg/mL	partner 171 µg/mL	partner 342 µg/mL
B. subtilis 168 [1], first compound 0.0625 µg/mL	0.89	0.872	0.871
B. subtilis 168 [1], first compound 0.25 µg/mL	0.0903	0.0388	0.109
S. aureus Newman [2], first compound 0.5 µg/mL	–	0.975	0.925
S. aureus Newman [2], first compound 1 µg/mL	–	≥ 1	0.99
S. aureus Newman [2], first compound 2 µg/mL	–	≥ 1	0.944
S. pneumoniae D39V [3], first compound 2 µg/mL	≥ 1	0.981	0.968
S. pneumoniae D39V [3], first compound 4 µg/mL	≥ 1	0.977	0.944
S. pneumoniae D39V [3], first compound 8 µg/mL	0.938	0.965	0.935

fitness, S. aureus Newman [2], one replicate
Settings	first compound 0.375 µg/mL	first compound 0.75 µg/mL	first compound 1.5 µg/mL
partner 85.5 µg/mL	≥ 1	≥ 1	≥ 1
partner 171 µg/mL	≥ 1	≥ 1	0.984
partner 342 µg/mL	≥ 1	≥ 1	≥ 1

Settings	Bliss interaction score
B. subtilis 168 [4]	-0.101
S. aureus DSM 20231	0.0726
S. aureus Newman [5]	0.0373
S. pneumoniae D39V [6]	0.099

CNC(C)C1CCC(N)C(OC2C(N)CC(N)C(OC3OCC(C)(O)C(NC)C3O)C2O)O1 (stereo not given) [Gentamicin] + CN1C2=CC=CC=C2N=C3C1=CC=CC3=O [Pyocyanin]
Settings	fitness
B. subtilis 168 [1], first compound 0.0625 µg/mL, partner 1.25 µg/mL	0.893
B. subtilis 168 [1], first compound 0.0625 µg/mL, partner 2.5 µg/mL	0.802
B. subtilis 168 [1], first compound 0.0625 µg/mL, partner 5 µg/mL	0.758
B. subtilis 168 [1], first compound 0.125 µg/mL, partner 5 µg/mL	0.559
B. subtilis 168 [1], first compound 0.25 µg/mL, partner 1.25 µg/mL	0.0424
B. subtilis 168 [1], first compound 0.25 µg/mL, partner 2.5 µg/mL	0.038
B. subtilis 168 [1], first compound 0.25 µg/mL, partner 5 µg/mL	0.0455
S. aureus Newman [2], first compound 0.5 µg/mL, partner 1.25 µg/mL	0.908
S. aureus Newman [2], first compound 0.5 µg/mL, partner 2.5 µg/mL	0.873
S. aureus Newman [2], first compound 1 µg/mL, partner 1.25 µg/mL	0.942
S. aureus Newman [2], first compound 1 µg/mL, partner 2.5 µg/mL	0.909
S. aureus Newman [2], first compound 1 µg/mL, partner 5 µg/mL	0.645
S. aureus Newman [2], first compound 2 µg/mL, partner 1.25 µg/mL	0.917
S. aureus Newman [2], first compound 2 µg/mL, partner 2.5 µg/mL	0.903
S. aureus Newman [2], first compound 2 µg/mL, partner 5 µg/mL	0.545
S. pneumoniae D39V [3], first compound 2 µg/mL, partner 0.325 µg/mL	0.962
S. pneumoniae D39V [3], first compound 2 µg/mL, partner 0.65 µg/mL	0.964
S. pneumoniae D39V [3], first compound 2 µg/mL, partner 1.3 µg/mL	0.6
S. pneumoniae D39V [3], first compound 4 µg/mL, partner 0.325 µg/mL	≥ 1
S. pneumoniae D39V [3], first compound 4 µg/mL, partner 0.65 µg/mL	0.959
S. pneumoniae D39V [3], first compound 4 µg/mL, partner 1.3 µg/mL	0.599
S. pneumoniae D39V [3], first compound 8 µg/mL, partner 0.325 µg/mL	0.94
S. pneumoniae D39V [3], first compound 8 µg/mL, partner 0.65 µg/mL	0.865
S. pneumoniae D39V [3], first compound 8 µg/mL, partner 1.3 µg/mL	0.531

fitness, S. aureus Newman [2], one replicate
Settings	first compound 0.375 µg/mL	first compound 0.75 µg/mL	first compound 1.5 µg/mL
partner 1.25 µg/mL	0.76	0.775	0.774
partner 2.5 µg/mL	0.791	0.776	0.783
partner 5 µg/mL	0.439	0.463	0.421

Settings	Bliss interaction score
B. subtilis 168 [4]	0.129
S. aureus DSM 20231	0.0622
S. aureus Newman [5]	0.111
S. pneumoniae D39V [6]	-0.113

CNC(C)C1CCC(N)C(OC2C(N)CC(N)C(OC3OCC(C)(O)C(NC)C3O)C2O)O1 (stereo not given) [Gentamicin] + CN(C)c1cc(NC(=O)CNC(C)(C)C)c(O)c2c1C[C@H]1C[C@H]3[C@H](N(C)C)C(O)=C(C(N)=O)C(=O)[C@@]3(O)C(O)=C1C2=O [Tigecycline]
Settings	fitness
B. subtilis 168 [1], first compound 0.0625 µg/mL, partner 0.039 µg/mL	0.967
B. subtilis 168 [1], first compound 0.0625 µg/mL, partner 0.078 µg/mL	0.908
B. subtilis 168 [1], first compound 0.0625 µg/mL, partner 0.156 µg/mL	0.907
B. subtilis 168 [1], first compound 0.25 µg/mL, partner 0.039 µg/mL	0.186
B. subtilis 168 [1], first compound 0.25 µg/mL, partner 0.078 µg/mL	0.0549
B. subtilis 168 [1], first compound 0.25 µg/mL, partner 0.156 µg/mL	0.0589
S. aureus Newman [2], first compound 0.5 µg/mL, partner 0.039 µg/mL	0.974
S. aureus Newman [2], first compound 0.5 µg/mL, partner 0.078 µg/mL	0.949
S. aureus Newman [2], first compound 0.5 µg/mL, partner 0.156 µg/mL	0.935
S. aureus Newman [2], first compound 1 µg/mL, partner 0.039 µg/mL	0.988
S. aureus Newman [2], first compound 1 µg/mL, partner 0.078 µg/mL	≥ 1
S. aureus Newman [2], first compound 1 µg/mL, partner 0.156 µg/mL	≥ 1
S. aureus Newman [2], first compound 2 µg/mL, partner 0.039 µg/mL	≥ 1
S. aureus Newman [2], first compound 2 µg/mL, partner 0.078 µg/mL	≥ 1
S. aureus Newman [2], first compound 2 µg/mL, partner 0.156 µg/mL	≥ 1
S. pneumoniae D39V [3], first compound 2 µg/mL, partner 0.325 µg/mL	0.94
S. pneumoniae D39V [3], first compound 2 µg/mL, partner 0.65 µg/mL	0.9
S. pneumoniae D39V [3], first compound 2 µg/mL, partner 1.3 µg/mL	0.909
S. pneumoniae D39V [3], first compound 2 µg/mL, partner 2.6 µg/mL	0.897
S. pneumoniae D39V [3], first compound 4 µg/mL, partner 0.325 µg/mL	0.943
S. pneumoniae D39V [3], first compound 4 µg/mL, partner 0.65 µg/mL	0.945
S. pneumoniae D39V [3], first compound 4 µg/mL, partner 1.3 µg/mL	0.96
S. pneumoniae D39V [3], first compound 4 µg/mL, partner 2.6 µg/mL	0.903
S. pneumoniae D39V [3], first compound 8 µg/mL, partner 0.325 µg/mL	0.971
S. pneumoniae D39V [3], first compound 8 µg/mL, partner 0.65 µg/mL	0.911
S. pneumoniae D39V [3], first compound 8 µg/mL, partner 1.3 µg/mL	0.977
S. pneumoniae D39V [3], first compound 8 µg/mL, partner 2.6 µg/mL	0.858

fitness, one replicate
Settings	first compound 0.0625 µg/mL	first compound 0.125 µg/mL	first compound 0.25 µg/mL	first compound 0.375 µg/mL	first compound 0.75 µg/mL	first compound 1.5 µg/mL
B. subtilis 168 [1], partner 0.125 µg/mL	≥ 1	≥ 1	0.0664	–	–	–
B. subtilis 168 [1], partner 0.25 µg/mL	0.91	0.891	0.315	–	–	–
B. subtilis 168 [1], partner 0.5 µg/mL	0.965	0.879	0.21	–	–	–
S. aureus Newman [2], partner 0.039 µg/mL	–	–	–	0.935	0.933	0.953
S. aureus Newman [2], partner 0.078 µg/mL	–	–	–	0.97	≥ 1	0.966
S. aureus Newman [2], partner 0.156 µg/mL	–	–	–	≥ 1	0.969	0.964

Settings	Bliss interaction score
B. subtilis 168 [4]	0.122
S. aureus DSM 20231	-0.0407
S. aureus Newman [5]	-0.0289
S. pneumoniae D39V [6]	0.0631
